# Data reported in article PMC12136037, “Type II kinase inhibitors that target Parkinson’s disease–associated LRRK2” (Science Advances, 2025).
# Tests used:
# Test in all cases: DSF 100 kinase selectivity screen;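 also: compound tested at 20 µM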
# Type in all cases: binding
# [1] = target: T1, ~100 representative kinases (Homo sapiens, UniProt P21675); conditions: Protein TAF1; DSF; average of three replicates
# T1 construct: Recombinant protein kinase domains with a concentration of 2 μM
# In short: (§1)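 Each kinase domain, at 2 μM, is mixed with 20 μM test compound and SYPRO Orange in Hepes (20 mM, pH 7.5) with 500 mM NaCl. Temperature is then raised at 3°C/min and fluorescence-monitored unfolding yields the melting temperature change, ΔTm in degrees Celsius.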
# [2] = target: T2, ~100 representative kinases (Homo sapiens, UniProt P48730); conditions: Protein CSNK1D; average of three replicates
# T2 construct: Recombinant protein kinase domains with a concentration of 2 μM
# In short: as §1
# [3] = target: T3, ~100 representative kinases (Homo sapiens, UniProt P49759); conditions: Protein CLK1; average of three replicates
# T3 construct: Recombinant protein kinase domains with a concentration of 2 μM
# In short: as §1
# [4] = target: T4, ~100 representative kinases (Homo sapiens, UniProt P54764); conditions: Protein EPHA4; average of three replicates
# T4 construct: Recombinant protein kinase domains with a concentration of 2 μM
# In short: as §1
# [5] = target: T5, ~100 representative kinases (Homo sapiens, UniProt Q6PHR2); conditions: Protein ULK3; DSF; average of three replicates
# T5 construct: Recombinant protein kinase domains with a concentration of 2 μM
# T5 sequence (Q6PHR2 1-472): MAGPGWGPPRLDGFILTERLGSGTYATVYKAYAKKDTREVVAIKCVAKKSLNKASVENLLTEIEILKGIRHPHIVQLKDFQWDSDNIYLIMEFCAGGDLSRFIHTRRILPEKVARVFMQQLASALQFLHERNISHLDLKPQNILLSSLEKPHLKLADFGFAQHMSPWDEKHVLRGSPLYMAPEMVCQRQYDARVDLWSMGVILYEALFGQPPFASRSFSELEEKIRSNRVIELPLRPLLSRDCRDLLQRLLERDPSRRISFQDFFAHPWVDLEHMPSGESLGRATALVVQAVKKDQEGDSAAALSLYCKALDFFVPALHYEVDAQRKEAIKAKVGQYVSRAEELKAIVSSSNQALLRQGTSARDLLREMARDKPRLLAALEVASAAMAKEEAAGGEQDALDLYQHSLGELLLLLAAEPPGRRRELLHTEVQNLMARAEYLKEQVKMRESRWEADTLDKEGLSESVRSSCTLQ
# In short: as §1
# [6] = target: T6, ~100 representative kinases (Homo sapiens, UniProt Q8TD08); conditions: protein MAPK15; average of three replicates
# T6 construct: Recombinant protein kinase domains with a concentration of 2 μM
# T6 sequence (Q8TD08 1-544): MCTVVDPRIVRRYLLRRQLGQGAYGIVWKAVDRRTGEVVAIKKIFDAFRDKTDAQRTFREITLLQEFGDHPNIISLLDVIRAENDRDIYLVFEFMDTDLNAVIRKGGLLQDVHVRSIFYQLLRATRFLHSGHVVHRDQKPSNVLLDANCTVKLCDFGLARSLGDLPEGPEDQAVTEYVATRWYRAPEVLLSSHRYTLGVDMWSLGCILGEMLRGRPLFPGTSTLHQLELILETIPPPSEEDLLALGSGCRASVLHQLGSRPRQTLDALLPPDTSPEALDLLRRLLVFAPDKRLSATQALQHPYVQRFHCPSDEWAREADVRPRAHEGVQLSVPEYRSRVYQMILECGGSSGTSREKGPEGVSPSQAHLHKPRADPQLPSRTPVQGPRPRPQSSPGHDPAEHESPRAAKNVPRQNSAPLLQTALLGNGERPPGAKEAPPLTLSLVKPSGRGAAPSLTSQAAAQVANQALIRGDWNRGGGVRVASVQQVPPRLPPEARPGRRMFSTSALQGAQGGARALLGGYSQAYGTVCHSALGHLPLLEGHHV
# In short: as §1
# [7] = target: T7, ~100 representative kinases (Homo sapiens, UniProt Q99683); conditions: protein MAP3K5; average of three replicates
# T7 construct: Recombinant protein kinase domains with a concentration of 2 μM
# T7 sequence (Q99683 1-1374): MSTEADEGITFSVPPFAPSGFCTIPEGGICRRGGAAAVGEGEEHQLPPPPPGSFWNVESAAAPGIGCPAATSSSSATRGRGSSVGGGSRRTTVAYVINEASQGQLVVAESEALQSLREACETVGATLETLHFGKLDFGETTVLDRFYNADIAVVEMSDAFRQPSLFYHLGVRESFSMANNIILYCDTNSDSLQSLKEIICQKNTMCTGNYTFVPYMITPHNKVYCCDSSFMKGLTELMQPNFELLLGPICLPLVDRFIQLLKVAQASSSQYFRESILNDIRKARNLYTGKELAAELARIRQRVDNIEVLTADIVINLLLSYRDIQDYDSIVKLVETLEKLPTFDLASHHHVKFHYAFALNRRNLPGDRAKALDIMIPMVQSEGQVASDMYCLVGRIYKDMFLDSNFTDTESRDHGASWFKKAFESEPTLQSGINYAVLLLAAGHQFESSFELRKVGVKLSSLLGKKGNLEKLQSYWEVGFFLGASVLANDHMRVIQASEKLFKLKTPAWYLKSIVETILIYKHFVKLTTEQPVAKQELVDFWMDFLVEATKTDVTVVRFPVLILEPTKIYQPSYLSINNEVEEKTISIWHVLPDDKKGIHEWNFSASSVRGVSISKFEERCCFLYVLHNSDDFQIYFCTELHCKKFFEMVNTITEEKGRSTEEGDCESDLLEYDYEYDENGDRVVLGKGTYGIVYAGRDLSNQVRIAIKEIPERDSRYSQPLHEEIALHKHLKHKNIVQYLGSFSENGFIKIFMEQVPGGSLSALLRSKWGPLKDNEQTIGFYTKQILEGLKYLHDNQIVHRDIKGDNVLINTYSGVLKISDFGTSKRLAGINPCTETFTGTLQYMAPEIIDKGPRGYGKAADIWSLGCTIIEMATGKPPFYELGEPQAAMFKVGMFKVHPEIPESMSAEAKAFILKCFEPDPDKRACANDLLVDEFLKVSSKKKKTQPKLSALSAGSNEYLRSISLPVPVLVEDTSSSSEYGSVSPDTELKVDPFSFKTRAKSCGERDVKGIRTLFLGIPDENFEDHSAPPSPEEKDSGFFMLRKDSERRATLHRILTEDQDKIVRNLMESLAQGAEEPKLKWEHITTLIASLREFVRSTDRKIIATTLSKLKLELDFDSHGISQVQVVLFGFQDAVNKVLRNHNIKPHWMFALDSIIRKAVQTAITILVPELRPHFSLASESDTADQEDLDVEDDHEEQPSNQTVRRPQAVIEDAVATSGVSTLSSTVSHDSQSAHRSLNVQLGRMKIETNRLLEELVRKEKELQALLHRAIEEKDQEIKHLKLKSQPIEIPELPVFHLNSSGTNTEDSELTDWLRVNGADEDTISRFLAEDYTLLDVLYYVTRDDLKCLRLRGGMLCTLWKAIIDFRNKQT
# In short: as §1
# T4 sequence (P54764 20-986): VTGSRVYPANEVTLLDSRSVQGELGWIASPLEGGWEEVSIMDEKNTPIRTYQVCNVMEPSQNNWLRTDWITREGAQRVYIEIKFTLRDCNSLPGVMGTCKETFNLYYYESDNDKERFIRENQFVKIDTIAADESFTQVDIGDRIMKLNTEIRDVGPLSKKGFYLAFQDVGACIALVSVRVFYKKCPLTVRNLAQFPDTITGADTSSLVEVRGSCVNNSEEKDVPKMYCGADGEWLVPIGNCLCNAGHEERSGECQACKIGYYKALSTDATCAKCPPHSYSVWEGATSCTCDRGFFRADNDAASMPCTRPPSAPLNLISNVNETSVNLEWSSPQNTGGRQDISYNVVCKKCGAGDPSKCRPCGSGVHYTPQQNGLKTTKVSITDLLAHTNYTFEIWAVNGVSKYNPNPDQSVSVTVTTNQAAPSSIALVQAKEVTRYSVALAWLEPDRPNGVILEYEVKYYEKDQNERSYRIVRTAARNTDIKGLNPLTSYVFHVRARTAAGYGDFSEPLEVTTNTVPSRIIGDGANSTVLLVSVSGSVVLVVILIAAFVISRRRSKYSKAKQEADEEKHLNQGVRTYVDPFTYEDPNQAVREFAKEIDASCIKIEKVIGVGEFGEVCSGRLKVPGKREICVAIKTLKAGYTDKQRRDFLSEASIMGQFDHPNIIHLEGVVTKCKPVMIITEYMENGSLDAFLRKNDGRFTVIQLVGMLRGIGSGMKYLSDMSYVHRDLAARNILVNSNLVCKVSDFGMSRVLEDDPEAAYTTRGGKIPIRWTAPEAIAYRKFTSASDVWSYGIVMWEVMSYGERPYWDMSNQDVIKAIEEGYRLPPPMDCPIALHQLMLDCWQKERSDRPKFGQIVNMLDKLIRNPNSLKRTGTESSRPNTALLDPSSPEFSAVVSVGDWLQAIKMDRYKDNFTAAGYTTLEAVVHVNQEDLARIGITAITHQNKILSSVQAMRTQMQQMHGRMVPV
# T3 sequence (P49759 whole entry, the tested form may be a part): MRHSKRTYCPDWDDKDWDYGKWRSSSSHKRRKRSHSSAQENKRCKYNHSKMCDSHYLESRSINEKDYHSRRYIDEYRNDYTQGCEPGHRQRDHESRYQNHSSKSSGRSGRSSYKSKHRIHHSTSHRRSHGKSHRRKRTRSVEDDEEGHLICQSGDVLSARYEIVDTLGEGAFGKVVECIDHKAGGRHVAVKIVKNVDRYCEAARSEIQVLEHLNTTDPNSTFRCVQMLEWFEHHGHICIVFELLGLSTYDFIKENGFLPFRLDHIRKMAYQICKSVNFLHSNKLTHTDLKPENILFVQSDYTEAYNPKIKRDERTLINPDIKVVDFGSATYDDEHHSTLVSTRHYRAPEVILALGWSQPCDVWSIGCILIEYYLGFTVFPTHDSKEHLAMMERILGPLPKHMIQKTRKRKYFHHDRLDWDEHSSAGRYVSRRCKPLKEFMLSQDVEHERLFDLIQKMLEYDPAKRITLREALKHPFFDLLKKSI
# T1 sequence (P21675 whole entry, the tested form may be a part): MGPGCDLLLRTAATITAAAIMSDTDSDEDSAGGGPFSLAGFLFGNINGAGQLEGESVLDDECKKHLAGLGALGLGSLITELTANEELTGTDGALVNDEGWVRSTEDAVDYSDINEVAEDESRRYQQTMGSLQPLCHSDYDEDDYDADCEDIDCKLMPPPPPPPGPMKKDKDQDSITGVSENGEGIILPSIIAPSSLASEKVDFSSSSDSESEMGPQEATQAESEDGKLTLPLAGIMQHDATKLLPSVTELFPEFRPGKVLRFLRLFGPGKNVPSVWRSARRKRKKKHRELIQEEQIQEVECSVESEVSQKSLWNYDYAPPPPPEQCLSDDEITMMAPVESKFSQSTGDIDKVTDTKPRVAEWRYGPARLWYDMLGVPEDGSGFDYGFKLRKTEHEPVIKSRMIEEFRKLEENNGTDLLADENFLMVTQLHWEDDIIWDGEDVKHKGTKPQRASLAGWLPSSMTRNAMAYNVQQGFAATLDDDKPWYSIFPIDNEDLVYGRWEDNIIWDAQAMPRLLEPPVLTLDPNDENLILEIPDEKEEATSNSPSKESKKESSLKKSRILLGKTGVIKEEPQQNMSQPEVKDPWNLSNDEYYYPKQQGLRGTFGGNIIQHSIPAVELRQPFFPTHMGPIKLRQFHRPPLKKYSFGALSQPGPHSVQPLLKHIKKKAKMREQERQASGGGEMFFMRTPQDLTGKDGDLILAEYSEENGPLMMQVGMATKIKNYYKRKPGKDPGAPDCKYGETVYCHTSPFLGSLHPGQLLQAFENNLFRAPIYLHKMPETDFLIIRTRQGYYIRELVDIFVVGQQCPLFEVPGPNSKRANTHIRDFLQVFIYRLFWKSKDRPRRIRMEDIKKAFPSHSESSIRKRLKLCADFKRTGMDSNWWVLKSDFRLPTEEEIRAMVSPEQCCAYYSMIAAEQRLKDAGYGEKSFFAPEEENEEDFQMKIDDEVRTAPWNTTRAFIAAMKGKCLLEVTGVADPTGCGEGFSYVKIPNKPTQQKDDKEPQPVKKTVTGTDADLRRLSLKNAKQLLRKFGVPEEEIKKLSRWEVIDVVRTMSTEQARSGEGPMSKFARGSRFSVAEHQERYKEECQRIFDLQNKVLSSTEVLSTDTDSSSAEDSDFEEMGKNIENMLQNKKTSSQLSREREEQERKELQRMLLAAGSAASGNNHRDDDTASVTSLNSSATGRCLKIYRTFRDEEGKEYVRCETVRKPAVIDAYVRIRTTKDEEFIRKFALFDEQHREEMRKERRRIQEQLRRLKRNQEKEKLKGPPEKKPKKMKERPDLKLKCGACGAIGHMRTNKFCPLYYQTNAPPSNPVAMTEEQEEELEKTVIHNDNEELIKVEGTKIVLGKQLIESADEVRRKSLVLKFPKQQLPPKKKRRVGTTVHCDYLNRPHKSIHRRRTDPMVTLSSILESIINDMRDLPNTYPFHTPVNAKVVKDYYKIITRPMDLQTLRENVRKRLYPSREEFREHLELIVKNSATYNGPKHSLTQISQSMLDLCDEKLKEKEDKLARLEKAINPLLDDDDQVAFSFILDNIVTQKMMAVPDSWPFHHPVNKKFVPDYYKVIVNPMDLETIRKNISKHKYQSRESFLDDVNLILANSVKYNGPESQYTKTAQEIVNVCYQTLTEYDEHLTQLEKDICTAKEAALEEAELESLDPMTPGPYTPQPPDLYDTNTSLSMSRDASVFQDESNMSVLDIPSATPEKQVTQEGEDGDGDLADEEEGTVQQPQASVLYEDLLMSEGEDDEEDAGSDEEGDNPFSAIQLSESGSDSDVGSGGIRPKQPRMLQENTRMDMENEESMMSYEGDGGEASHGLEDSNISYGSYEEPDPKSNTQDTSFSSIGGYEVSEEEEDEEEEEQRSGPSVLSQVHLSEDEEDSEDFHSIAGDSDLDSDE
# T2 sequence (P48730 whole entry, the tested form may be a part): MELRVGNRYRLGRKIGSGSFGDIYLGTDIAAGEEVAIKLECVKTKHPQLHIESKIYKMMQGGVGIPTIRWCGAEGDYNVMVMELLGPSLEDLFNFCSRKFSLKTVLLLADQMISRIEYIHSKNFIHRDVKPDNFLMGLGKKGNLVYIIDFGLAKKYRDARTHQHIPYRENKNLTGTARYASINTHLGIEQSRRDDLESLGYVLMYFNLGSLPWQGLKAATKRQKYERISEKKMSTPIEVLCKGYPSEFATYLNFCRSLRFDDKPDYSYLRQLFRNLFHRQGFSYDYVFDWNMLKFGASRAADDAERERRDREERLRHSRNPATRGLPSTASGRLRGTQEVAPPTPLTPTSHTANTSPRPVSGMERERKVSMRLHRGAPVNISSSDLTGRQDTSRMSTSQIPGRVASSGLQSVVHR
dTm [1] [K],dTm [2] [K],dTm [3] [K],dTm [4] [K],dTm [5] [K],dTm [7] [K],Structure (SMILES),dTm [6] [K]
0.34,1.58,6.84,2.64,7.72,1.35,Cc1ccc(NC(=O)C2(C(=O)Nc3cccc(-c4c[nH]c5ncnc(N6CCOCC6)c45)c3)CC2)cc1 [Compound 14],5.81
0.30,1.10,4.67,2.49,3.31,4.24,Cc1cc(NC(=O)C2(C(=O)Nc3ccc(F)cc3)CC2)cc(-c2c[nH]c3ncnc(N4CCOCC4)c23)c1 [Compound 6],5.91
-2.32,-0.55,7.78,1.53,7.46,3.40,O=C(Nc1cc(F)cc(Br)c1)C1(C(=O)Nc2cccc(-c3c[nH]c4ncnc(N5CCOCC5)c34)c2)CC1 [Compound 27],4.52
0.37,0.92,7.75,-0.05,5.26,0.46,COc1ccc(NC(=O)C2(C(=O)Nc3cccc(-c4c[nH]c5ncnc(N6CCOCC6)c45)c3)CC2)cc1 [Compound 16],2.17
1.29,2.99,9.39,4.09,9.91,4.01,O=C(Nc1ccc(Cl)cc1)C1(C(=O)Nc2cccc(-c3c[nH]c4ncnc(N5CCOCC5)c34)c2)CC1 [Compound 13],9.74
0.30,1.47,5.49,0.68,7.53,1.15,Cc1cc(F)ccc1NC(=O)C1(C(=O)Nc2cccc(-c3c[nH]c4ncnc(N5CCOCC5)c34)c2)CC1 [Compound 24],4.07
0.23,2.09,9.06,2.10,7.39,3.63,O=C(Nc1ccc(F)cc1)C1(C(=O)Nc2cccc(-c3c[nH]c4ncnc(N5CCOCC5)c34)c2)CC1 [Compound 2],10.01
0.37,3.13,10.73,0.24,8.22,2.37,COc1cc(NC(=O)C2(C(=O)Nc3cccc(-c4c[nH]c5ncnc(N6CCOCC6)c45)c3)CC2)ccc1F [Compound 21],10.35
1.24,-2.04,7.58,2.71,11.44,2.56,CC(C)(C)c1cccc(NC(=O)C2(C(=O)Nc3cccc(-c4c[nH]c5ncnc(N6CCOCC6)c45)c3)CC2)c1 [Compound 22],6.32
-10.70,0.95,17.42,6.97,7.43,4.49,Cc1ccc(-n2nc(C(C)(C)C)cc2NC(=O)Nc2cccc(-c3c[nH]c4ncnc(N5CCOCC5)c34)c2)cc1 [Compound 29],16.65
1.63,-0.29,4.99,1.97,9.25,2.91,O=C(Nc1cccc(-c2c[nH]c3ncnc(N4CCOCC4)c23)c1)C1(C(=O)Nc2cc(Br)c(F)cc2F)CC1 [Compound 25],3.06

# The remaining lines, values behind:
Structure (SMILES),dTm [1] [K],dTm [2] [K],dTm [3] [K],dTm [4] [K],dTm [5] [K],dTm [7] [K],dTm [6] [K]
Cc1ccc(-n2nc(C(C)(C)C)cc2NC(=O)Nc2cccc(-c3c[nH]c4nc(Cl)nc(N5CCOCC5)c34)c2)cc1 [Compound 30],-4.89,-2.91,11.59,1.07,0.27,1.60,6.72
CCNc1nc(Nc2cc(F)c(C(=O)N3CCOCC3)cc2OC)ncc1C(F)(F)F [GNE-7915],-0.58,1.81,5.28,0.0738,1.79,3.14,2.03
CCSc1nc(NC)c2c(-c3cccc(NC(=O)Nc4cc(C(C)(C)C)nn4-c4ccc(C)cc4)c3)c[nH]c2n1 [Compound 32],-5.70,0.85,5.52,-0.34,0.44,0.73,3.18
O=C(Nc1cccc(-c2c[nH]c3ncnc(N4CCOCC4)c23)c1)c1cccn(-c2ccc(F)cc2)c1=O [Compound 4],-0.36,5.34,9.53,2.61,8.63,4.59,7.29
"CNC(=O)c1cc(Oc2ccc(NC(=O)Nc3cc(C(C)(C)C)nn3-c3ccc4ncccc4c3)c(F)c2)ccn1 [Rebastinib, reference compound]",-2.54,-1.01,15.99,15.87,3.80,1.38,14.70
"Cc1ccc(C(=O)Nc2ccc(CN3CCN(C)CC3)c(C(F)(F)F)c2)cc1C#Cc1cnc2cccnn12 [Ponatinib, reference compound]",-0.60,,,,,,
CN[C@@H]1C[C@H]2O[C@@](C)([C@@H]1OC)n1c3ccccc3c3c4c(c5c6ccccc6n2c5c31)C(=O)NC4 [Staurosporine],0.52,2.05,,6.68,,,
